Assay [1] relates to caspase 3/7 in A549 cells (human lung cancer, adenocarcinoma). Put plainly: Test of inducing apoptosis of A549 cells (caspase 3/7 activity). The class given is cell-based. As to conditions: 5 hours. Here is the method: (Test of Inducing Apoptosis of A549 Cells (Human Lung Cancer, Adenocarcinoma))
To evaluate apoptosis induction of a sample (Compound 3), the activity of caspase 3/7 was measured.
1. Measurement Reagents, Equipment and Instruments
APO-ONE Homogeneous Caspase-3/7 Assay (G7790, Lot No. 314408; Promega)
Fluorescence plate reader (SpectraMax GEMINI EM; Molecular Devices)
Cells: A549 cells (obtained from the Research Resource Bank of the Human Sciences Foundation)
Medium: 10% FBS and 0.1 mmol/L Non-Essential Amino Acids Solution-containing MEM medium
A 1 mmol/L solution prepared with DMSO was prepared with a medium so as to have a final concentration (the final concentration of DMSO was set to be 0.1%).
A sample was weighed and a medium was added so as to obtain 500 μg/mL. While warming at 37° C., sonication was performed for 60 minutes to make dissolution. Filtration was performed by a 0.22 μm-filter. The 500 μg/mL solution was subjected to serial dilution in a common ratio of 10 with the medium to prepare 50, 5, 0.5, 0.05 and 0.005 μg/mL.
(1) (The day before test)
On a 96-well plate, A549 cells were seeded in a ratio of 10000 cells/100 μL/well. […]
(4) Reaction was performed at room temperature while blocking light. Two hours later, fluorescence was measured (excitation wavelength: 499 nm, fluorescence wavelength: 521 nm)

The subject of assay [2] is TNF-α mRNA expression in RBL-2H3 cells. Put plainly: Validation test in RBL-2H3 cell: TNF-α mRNA expression by antigen stimulation (Real-time PCR). It is filed as cell-based, Rat. As to conditions: for TNF-α mRNA expression level: untreated control as 100. The protocol: 2. Validation Test in RBL-2H3 Cell
(Effect on Inflammation Mediator mRNA Expression by Antigen Stimulation)
After a cell model for an allergic reaction, RBL-2H3 cells, were stimulated by an antigen, mRNA expression level of a typical inflammation mediator, TNF-α, in the cell was measured by a Real-time PCR method. In this manner, a confirmation test for anti-inflammatory effect of Compound 3 was performed.
A test substance (Compound 3) (50 mg) was dissolved by adding 50 vol % ethanol (1 mL) to this to obtain an ethanol solution having a concentration of 50 mg/mL. The resultant solution was diluted with a medium. […] As a control (for comparison), Wortmannin (10 μM) was used. Herein, the concentrations were all indicated as the concentrations in cell supernatants.
RBL-2H3 cells were sensitized with anti-DNP-IgE antibody for 2 hours. A medium or a test solution was added and heat was applied at 37° C. for 10 minutes and then, a DNP-HSA solution was added. A reaction was carried out at 37° C. for 30 minutes. After completion of the reaction, total RNA was extracted from a cell fraction and cDNA was synthesized by use of Random Primer and Reverse Transcriptase. After a specific primer for a desired gene (ITNF-α,β-actin) was added, a Real-time PCR method was carried out in accordance with SYBR Green method using the resultant cDNA as a template to determine the expression level of mRNA. The expression ratio of the desired gene relative to a housekeeping gene, β-actin, was calculated. In this manner, a change in expression level relative to an untreated control was calculated.
Main test conditions and outline of the operation will be described below.
Cell: Rat basophil leukemic cell, RBL-2H3 [Human Sciences Foundation]
Antigen stimulation: Anti-DNP-IgE antibody, DNP labeled albumin
[Sigma-Aldrich Corporation]
Desired genes: IL-4, MCP-1, TNF-α, β-actin (housekeeping gene)
Measurement apparatus: StepOnePlus Real-Time PCR System [Life
Technologies Corporation] Measurement conditions: 95° C. (20 sec)→{95° C. (3 sec)→60° C. (30 sec)}×40 cycles
mRNA expression level (%) was obtained based on the expression level of the untreated control as 100.
On the technique in general: Real-time PCR tracks product formation cycle by cycle.

The values below come from patent US9682931B2, “Aryloyl(oxy or amino)pentafluorosulfanylbenzene compound, pharmaceutically acceptable salt thereof, and prodrugs thereof” (UBE INDUSTRIES, LTD., priority 2013, dated 2017).

For `O=C(Nc1ccc(S(F)(F)(F)(F)F)cc1)c1cc(O)c(O)c(O)c1` [Compound 3, 4-(3,4,5-trihydroxybenzoylamino)pentafluorosulfanylbenzene], the “caspase 3/7 activity” value in assay [1] (0.005 μg/mL to 5 μg/mL) is listed as “high activity was observed”; in assay [1] (all concentrations 0.005 μg/mL to 500 μg/mL) it was “tends to enhance caspase 3/7 activity”. Besides, the “suppression of TNF-α mRNA expression” value in assay [2] (RBL-2H3 cells, antigen stimulation) is recorded as “Suppression of the mRNA expression TNF-α, one of inflammatory mediators, was confirmed”. Further, the “TNF-α mRNA expression level” value in assay [2] (sample 1 μg/mL) turned out to be 87%; in assay [2] (sample 10 μg/mL) it was 69%.
